We go through 15 molecules from patent EP0383919A1, “STAUROSPORIN DERIVATIVES” (KYOWA HAKKO KOGYO CO., LTD., priority 1988, dated 1989).

In brackets after ≈: the same amount, converted by molar mass. Like-named read-outs stand apart in the source and are kept apart here.

The IC50 is the concentration needed to halve the response being measured.

Experiment [1] has as its target T1, Protein kinase A (Bos taurus, UniProt P00517).
T1 construct: a crude enzyme (partially purified from the calf heart by the method of Kuo et al.); from tissue; host or cells: calf heart
Nature of the experiment: biochemical. As to conditions: crude enzyme partially purified from the calf heart, histone type IIS, c-AMP. As for the experimental part: (2) Protein kinase A inhibition assay:
Then, the same procedure as the above-described protein kinase C inhibition assay is carried out to calculate IC50.

Experiment [2] deals with HeLa S3 cells. In words: HeLa S3 cell growth inhibition assay. In kind it is cell-based. As to conditions: for IC50: Homo sapiens, HeLa S3, 72 h, read-out: IC50 HeLa S3. As for the experimental part:
(1) HeLa S3 cell growth inhibition assay:
A suspension of HeLa S3 cells (3 x 10^4 cells/ml) in MEM containing 10% fetal serum and 2 mM glutamine is distributed in 0.1 ml portions into the wells of a 96-well microtiter plate and incubated overnight in a C02 incubator at 37°C. Then, 0.05 ml portions of an appropriately diluted solution of the test compound are added. The cells are further cultured in the C02 incubator and the culture supernatant is discarded. After washing with PBS (-) once, 0.1 ml portions of fresh medium are added to the wells and the incubation is continued in the C02 incubator at 37°C for 72 hours. After the culture supernatant is discarded, 0.1 ml portions of culture medium containing 0.02% neutral red are added to the respective wells and the microtiter plate is incubated in the C02 incubator at 37°C for 1 hour to stain the cells. After removal of the culture supernatant, the plate is washed with physiological saline once and the dye is extracted with 0.001 N HC1/30% ethanol. Then, using a microplate reader, the absorbances at 550 nm are measured.

In experiment [3] the test system is CoLo 320DM cells. In words: CoLo 320DM cell growth inhibition assay. In kind it is cell-based. The settings on record: Homo sapiens, read-out: IC50 CoLo 320DM. The procedure: (2) CoLo 320DM cell growth inhibition assay:
Then, the same procedure as (1) is followed and the counting of cells is carried out with a microcell counter.

Where [4] appears, read: read-out: IC50 Protein kinase A (converted).
The mark [5] stands for this setting: 50% growth inhibition concentration, neutral red staining, absorbance at 550 nm, 72 hours incubation after washing.
The mark [6] stands for this setting: 50% cell growth inhibition concentration, cell counting with a microcell counter.

Take `COC1C(N(C)C(C)=O)CC2OC1(C)n1c3ccccc3c3c4c(c5c6ccccc6n2c5c31)C(=O)NC4` (stereo not drawn): the IC50 in experiment [1] (setting [4]) is 59 nM. Take `CNC1CC2OC(C)(C1OC)n1c3ccccc3c3c4c(c5c6ccccc6n2c5c31)C(=O)NC4OC` (single isomer, unassigned) [Compound 16]: the “IC50 HeLa S3” value in experiment [2] (setting [5]) stood at 0.20 µg/mL (≈ 0.403 µM). Further, the IC50 in experiment [1] (setting [4]) was 383 nM. In the case of `CNC1CC2OC(C)(C1OC)n1c3ccccc3c3c4c(c5c6ccccc6n2c5c31)C(=O)NC4OC` (single isomer, unassigned) [Compound 17], the IC50 in experiment [2] (setting [5]) was 0.16 µg/mL (≈ 0.322 µM); in experiment [1] (setting [4]), 242 nM. In the case of `COC1C(N(C)C=O)CC2OC1(C)n1c3ccccc3c3c4c(c5c6ccccc6n2c5c31)C(=O)NC4` (stereo not drawn) [Compound 3], the IC50 in experiment [1] (setting [4]) was 20200 nM. Regarding `CNC1CC2OC(C)(C1OC)n1c3ccccc3c3c4c(c5c6ccccc6n2c5c31)C(=O)N(C=O)C4` (stereo not drawn) [Compound 4], the results for the IC50 in experiment [2] (setting [5]) and in experiment [3] (setting [6]) were 0.18 µg/mL (≈ 0.364 µM) and 0.19 µg/mL (≈ 0.384 µM), respectively.

As for `CNC1CC2OC(C)(C1OC)n1c3ccccc3c3c4c(c5c6ccccc6n2c5c31)C(=O)N(N)C4=O` (stereo not drawn) [Compound 5], the IC50 was 0.75 µg/mL (≈ 1.51 µM) in experiment [2] and 0.59 µg/mL (≈ 1.19 µM) in experiment [3].

As for `COC1C(N(C)C(=O)CN)CC2OC1(C)n1c3ccccc3c3c4c(c5c6ccccc6n2c5c31)C(=O)NC4` (stereo not drawn) [Compound 10], the figures for the IC50 in experiment [2] (setting [5]) and in experiment [3] (setting [6]) were 0.051 µg/mL (≈ 0.0974 µM) and 0.55 µg/mL (≈ 1.05 µM), respectively.

As to `CNC1CC2OC(C)(C1OC)n1c3ccccc3c3c4c(c5c6ccccc6n2c5c31)C(=O)NC4OC` (stereo not drawn) [Compound 11], the 50% inhibitory concentration (IC50) is 0.17 µg/mL (≈ 0.342 µM) in experiment [2] (setting [5]), 0.14 µg/mL (≈ 0.282 µM) in experiment [3] (setting [6]) and 322 nM in experiment [1] (setting [4]). With `COC1C(N(C)C(C)=O)CC2OC1(C)n1c3ccccc3c3c4c(c5c6ccccc6n2c5c31)C(=O)NC4=O` (stereo not drawn) [Compound 13], in experiment [1] (setting [4]), the IC50 was 68.9 nM. In the case of `CNC1CC2OC(C)(C1OC)n1c3ccccc3c3c4c(c5c6ccccc6n2c5c31)C(=O)N(C)C4=O` (stereo not drawn) [Compound 14], the IC50 in experiment [2] was 0.78 µg/mL (≈ 1.58 µM); in experiment [3], > 1 µg/mL. Consider `CNC1CC2OC(C)(C1OC)n1c3ccccc3c3c4c(c5c6ccccc6n2c5c31)C(=O)NC4=O` (stereo not drawn) [Compound 15], for which it took 27.1 nM to reach half-maximal inhibition in experiment [1] (IC50 Protein kinase A) (IC50). On to `CNC1CC2OC(C)(C1OC)n1c3ccccc3c3c4c(c5c6ccccc6n2c5c31)C(=O)NC4OC(C)C` (stereo not drawn) [Compound 18], for which the IC50 in experiment [2] (setting [5]) stood at 0.29 µg/mL (≈ 0.553 µM). Take `CCCCOC1NC(=O)c2c1c1c3ccccc3n3c1c1c2c2ccccc2n1C1CC(NC)C(OC)C3(C)O1` (stereo not drawn) [Compound 19]: the IC50 in experiment [2] is 0.32 µg/mL (≈ 0.594 µM). Turning to `CCOC1NC(=O)c2c1c1c3ccccc3n3c1c1c2c2ccccc2n1C1CC(NC)C(OC)C3(C)O1` (stereo not drawn) [Compound 20], the IC50 in experiment [2] (setting [5]) worked out at 0.29 µg/mL (≈ 0.568 µM). Regarding `CN[C@@H]1C[C@H]2O[C@@](C)([C@@H]1OC)n1c3ccccc3c3c4c(c5c6ccccc6n2c5c31)C(=O)N[C@@H]4O` [UCN-01, reference compound], the figures for the IC50 in experiment [2] and in experiment [1] (IC50 Protein kinase A) were 0.17 µg/mL (≈ 0.352 µM) and 41.4 nM, respectively.
